Patent US20090306046A1, “METHOD OF TREATMENT OF HORMONE DEPLETION INDUCED VASOMOTOR SYMPTOMS” (N.V. ORGANON, priority 2005, published 2009)

How the values were obtained:
postmenopausal women = experiment: Weaning from hormone therapy with mirtazapine as non-hormonal therapy for vasomotor symptoms; type: in vivo; conditions: 15 mg by mouth at bedtime for 6 months from the day hormone therapy is discontinued; postmenopausal women 60-65 year old; in comparison to women on hormone therapy
Protocol: Mirtazapine is used as non-hormonal therapy for vasomotor symptoms. Treatment dose is 15 mg. The length of weaning is 6 months. In this example subjects for treatment have the following characteristics: Postmenopausal women of 60-65 year old who have been on hormone therapy for the treatment of vasomotor symptoms associated with menopause for at least 2 years. They have either a need or a desire to discontinue hormone therapy. They are informed of the risks of mirtazapine. They are informed that successful use of mirtazapine for the relief of vasomotor symptoms associated with menopause has been reported in the medical literature. This method should not be used for women who have a condition or take medications that preclude the use of mirtazapine. A person treated according to this example is instructed to take 15 mg mirtazapine by mouth on the day that they are to discontinue hormone therapy. Mirtazapine is prescribed to be taken at bedtime and after all their evening rituals are done so that they can lay down right after taking mirtazapine. They are instructed to continue taking 15 mg of mirtazapine at bedtime for 6 months after which mirtazapine administration is discontinued. […] Method to measure hot flash frequency: by self rating or according to the method described by Freedman et al J. Clin Endocrin & Metabolism, Vol 80, pp 2354-2358.

women with breast cancer = conditions: results of 15 randomized controlled trials; cited from earlier work

Row | SMILES | withdrawal vasomotor symptoms (postmenopausal women) | measures of hot flashes (women with breast cancer)
1 | CN1CCN2c3ncccc3Cc3ccccc3C2C1 (racemic) [Mirtazapine] | absent or strongly reduced | –
2 | Clc1cccc(Cl)c1N=C1NCCN1 [clonidine] | – | significantly improved
3 | CC(=O)O[C@]1(C(C)=O)CC[C@H]2[C@@H]3C=C(C)C4=CC(=O)CC[C@]4(C)[C@H]3CC[C@@]21C [megestrol acetate] | – | significantly improved
4 | COc1ccc(C(CN(C)C)C2(O)CCCCC2)cc1 (stereo not shown) [venlafaxine] | – | significantly improved
